Results: PMC9581132, “Cross clinical-experimental-computational qualification of in silico drug trials on human cardiac purkinje cells for proarrhythmia risk prediction” (Frontiers in Toxicology, 2022)
“Also recorded” adds a separate entry of the source. Like-named read-outs stand apart in the source and are kept apart here.

What was measured:
hKv4.3 = target: T1, hKv4.3 (Homo sapiens, UniProt Q9UK17); assay: Automated patch clamp (QPatch), transient outward K+ current Ito; type: cell-based; settings: room temperature; dash = no effect or IC50 much higher than tested concentrations
T1 construct: expressed in transfected cells; host or cells: HEK-293
T1 sequence (Q9UK17 1-655): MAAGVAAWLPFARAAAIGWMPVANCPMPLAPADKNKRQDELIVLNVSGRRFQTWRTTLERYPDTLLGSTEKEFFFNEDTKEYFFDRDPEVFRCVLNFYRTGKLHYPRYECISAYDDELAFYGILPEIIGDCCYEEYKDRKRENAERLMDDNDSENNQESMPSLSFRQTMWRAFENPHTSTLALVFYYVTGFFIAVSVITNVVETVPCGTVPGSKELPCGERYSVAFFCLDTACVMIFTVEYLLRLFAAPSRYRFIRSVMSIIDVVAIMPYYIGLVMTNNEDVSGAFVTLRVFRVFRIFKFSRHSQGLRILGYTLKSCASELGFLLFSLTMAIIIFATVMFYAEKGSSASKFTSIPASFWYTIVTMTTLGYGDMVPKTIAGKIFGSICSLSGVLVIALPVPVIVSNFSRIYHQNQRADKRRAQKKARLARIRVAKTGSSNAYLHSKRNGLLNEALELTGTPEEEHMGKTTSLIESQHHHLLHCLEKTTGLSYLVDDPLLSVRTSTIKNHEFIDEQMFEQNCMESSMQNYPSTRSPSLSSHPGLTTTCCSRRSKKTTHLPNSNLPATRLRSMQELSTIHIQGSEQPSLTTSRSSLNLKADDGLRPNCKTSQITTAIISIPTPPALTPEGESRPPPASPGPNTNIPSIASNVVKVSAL

[1] = parameters: method as in Woosley and Romer, 1999; key: 1: Known risk; 2: Conditional risk; NC: Not classified, i.e., evidence was not enough to add it to any risk category; settings: CredibleMeds category; ref Woosley and Romer, 1999; cited from earlier work
rabbit Purkinje fibers = assay: In vitro drug assay on rabbit Purkinje fibers (microelectrode AP recordings); settings: for EADs occurrence in rabbit experiments / Risk classification based on EADs occurrence, in vitro rabbit: slow pacing; for EADs occurrence in rabbit experiments: across tested concentrations; for Risk classification based on EADs occurrence, in vitro rabbit: compared with clinical risk; for ΔAPD90 Exp: Normal pacing (1 Hz)
hNav1.5 [2] = target: T2, hNav1.5 (Homo sapiens, UniProt Q14524); assay: Automated patch clamp (QPatch), fast Na+ current INa; type: cell-based; settings: room temperature; dash = no effect or IC50 much higher than tested concentrations
T2 construct: expressed in transfected cells; host or cells: HEK-293

rabbit hearts = settings: cited from earlier work
hCav1.2 [3] = target: T3, hCav1.2 (Homo sapiens, UniProt Q13936); assay: Automated patch clamp (QPatch), L-type Ca2+ current ICaL; type: cell-based; settings: room temperature; dash = no effect or IC50 much higher than tested concentrations
T3 construct: expressed in transfected cells; host or cells: CHO

hNav1.5 [4] = target: T2, hNav1.5; parameters: method as in Crumb et al., 2016; settings: ref Crumb et al., 2016; cited from earlier work
hCav1.2 [5] = target: T3, hCav1.2; settings: ref Crumb et al., 2016; cited from earlier work
hERG = target: T4, hERG (Homo sapiens, UniProt Q12809); settings: ref Crumb et al., 2016; cited from earlier work
T4 construct: host or cells: CHO (hERG-CHO) and HEK-293 stably transfected with hERG cDNA

[6] = parameters: method as in Démolis et al., 2003; settings: therapeutic doses; ref Démolis et al., 2003; cited from earlier work
hiPSC-CMs = settings: 100 µM; ref Blinova et al., 2018; Yu et al., 2019; cited from earlier work

T3 sequence (Q13936 whole entry): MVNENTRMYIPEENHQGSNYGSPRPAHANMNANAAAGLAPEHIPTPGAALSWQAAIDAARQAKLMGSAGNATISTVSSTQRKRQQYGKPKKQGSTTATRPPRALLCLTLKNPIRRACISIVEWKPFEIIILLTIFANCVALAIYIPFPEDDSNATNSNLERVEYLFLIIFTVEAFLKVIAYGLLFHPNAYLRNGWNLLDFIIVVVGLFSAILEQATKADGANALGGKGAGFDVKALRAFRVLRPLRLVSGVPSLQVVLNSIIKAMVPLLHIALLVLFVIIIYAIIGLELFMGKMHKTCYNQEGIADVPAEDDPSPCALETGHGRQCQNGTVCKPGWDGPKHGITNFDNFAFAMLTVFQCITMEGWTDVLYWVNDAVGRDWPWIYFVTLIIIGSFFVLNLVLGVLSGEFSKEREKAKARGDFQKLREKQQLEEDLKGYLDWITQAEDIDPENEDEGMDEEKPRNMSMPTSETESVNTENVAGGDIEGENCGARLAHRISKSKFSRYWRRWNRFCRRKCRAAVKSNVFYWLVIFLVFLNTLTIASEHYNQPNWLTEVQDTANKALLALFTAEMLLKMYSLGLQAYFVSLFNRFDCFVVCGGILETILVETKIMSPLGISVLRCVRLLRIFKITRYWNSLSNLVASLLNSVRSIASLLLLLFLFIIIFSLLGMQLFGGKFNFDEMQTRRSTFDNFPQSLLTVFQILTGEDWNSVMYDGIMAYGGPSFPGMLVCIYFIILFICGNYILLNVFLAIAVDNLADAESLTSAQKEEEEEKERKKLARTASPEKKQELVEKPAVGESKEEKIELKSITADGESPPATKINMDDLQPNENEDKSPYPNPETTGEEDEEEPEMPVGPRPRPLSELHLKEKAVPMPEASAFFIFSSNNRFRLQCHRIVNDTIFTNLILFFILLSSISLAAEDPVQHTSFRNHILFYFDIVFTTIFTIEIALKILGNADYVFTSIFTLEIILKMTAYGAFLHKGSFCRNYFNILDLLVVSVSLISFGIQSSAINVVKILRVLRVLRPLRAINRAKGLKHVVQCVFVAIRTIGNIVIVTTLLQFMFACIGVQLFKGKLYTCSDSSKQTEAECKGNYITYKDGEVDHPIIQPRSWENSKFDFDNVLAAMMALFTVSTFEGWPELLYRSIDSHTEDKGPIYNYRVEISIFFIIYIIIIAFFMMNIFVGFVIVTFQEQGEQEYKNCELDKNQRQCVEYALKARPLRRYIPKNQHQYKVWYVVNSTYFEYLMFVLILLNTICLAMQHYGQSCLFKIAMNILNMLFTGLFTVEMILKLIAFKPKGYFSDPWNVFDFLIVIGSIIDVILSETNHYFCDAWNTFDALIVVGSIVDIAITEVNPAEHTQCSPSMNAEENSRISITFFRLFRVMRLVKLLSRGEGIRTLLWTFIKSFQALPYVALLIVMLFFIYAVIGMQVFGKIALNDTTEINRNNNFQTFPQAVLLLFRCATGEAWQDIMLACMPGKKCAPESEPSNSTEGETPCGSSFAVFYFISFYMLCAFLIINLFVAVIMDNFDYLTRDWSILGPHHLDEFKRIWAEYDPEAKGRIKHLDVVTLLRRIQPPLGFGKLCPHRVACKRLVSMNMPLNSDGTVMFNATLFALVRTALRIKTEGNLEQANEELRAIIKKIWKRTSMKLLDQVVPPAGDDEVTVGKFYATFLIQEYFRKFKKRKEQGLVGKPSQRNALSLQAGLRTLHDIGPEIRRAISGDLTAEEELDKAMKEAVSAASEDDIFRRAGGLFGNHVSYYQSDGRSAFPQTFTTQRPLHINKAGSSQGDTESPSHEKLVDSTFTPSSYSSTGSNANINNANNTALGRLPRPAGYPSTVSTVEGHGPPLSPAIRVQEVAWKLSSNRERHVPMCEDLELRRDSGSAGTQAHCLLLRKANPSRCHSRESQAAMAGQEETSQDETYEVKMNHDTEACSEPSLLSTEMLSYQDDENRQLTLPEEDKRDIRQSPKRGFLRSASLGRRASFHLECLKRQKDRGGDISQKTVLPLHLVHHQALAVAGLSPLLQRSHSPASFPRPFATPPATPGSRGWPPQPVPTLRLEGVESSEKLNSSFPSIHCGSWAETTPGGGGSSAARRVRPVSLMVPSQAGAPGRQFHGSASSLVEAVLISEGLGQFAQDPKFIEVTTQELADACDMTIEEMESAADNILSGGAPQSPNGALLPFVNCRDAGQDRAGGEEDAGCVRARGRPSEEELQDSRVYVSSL
T2 sequence (Q14524 whole entry): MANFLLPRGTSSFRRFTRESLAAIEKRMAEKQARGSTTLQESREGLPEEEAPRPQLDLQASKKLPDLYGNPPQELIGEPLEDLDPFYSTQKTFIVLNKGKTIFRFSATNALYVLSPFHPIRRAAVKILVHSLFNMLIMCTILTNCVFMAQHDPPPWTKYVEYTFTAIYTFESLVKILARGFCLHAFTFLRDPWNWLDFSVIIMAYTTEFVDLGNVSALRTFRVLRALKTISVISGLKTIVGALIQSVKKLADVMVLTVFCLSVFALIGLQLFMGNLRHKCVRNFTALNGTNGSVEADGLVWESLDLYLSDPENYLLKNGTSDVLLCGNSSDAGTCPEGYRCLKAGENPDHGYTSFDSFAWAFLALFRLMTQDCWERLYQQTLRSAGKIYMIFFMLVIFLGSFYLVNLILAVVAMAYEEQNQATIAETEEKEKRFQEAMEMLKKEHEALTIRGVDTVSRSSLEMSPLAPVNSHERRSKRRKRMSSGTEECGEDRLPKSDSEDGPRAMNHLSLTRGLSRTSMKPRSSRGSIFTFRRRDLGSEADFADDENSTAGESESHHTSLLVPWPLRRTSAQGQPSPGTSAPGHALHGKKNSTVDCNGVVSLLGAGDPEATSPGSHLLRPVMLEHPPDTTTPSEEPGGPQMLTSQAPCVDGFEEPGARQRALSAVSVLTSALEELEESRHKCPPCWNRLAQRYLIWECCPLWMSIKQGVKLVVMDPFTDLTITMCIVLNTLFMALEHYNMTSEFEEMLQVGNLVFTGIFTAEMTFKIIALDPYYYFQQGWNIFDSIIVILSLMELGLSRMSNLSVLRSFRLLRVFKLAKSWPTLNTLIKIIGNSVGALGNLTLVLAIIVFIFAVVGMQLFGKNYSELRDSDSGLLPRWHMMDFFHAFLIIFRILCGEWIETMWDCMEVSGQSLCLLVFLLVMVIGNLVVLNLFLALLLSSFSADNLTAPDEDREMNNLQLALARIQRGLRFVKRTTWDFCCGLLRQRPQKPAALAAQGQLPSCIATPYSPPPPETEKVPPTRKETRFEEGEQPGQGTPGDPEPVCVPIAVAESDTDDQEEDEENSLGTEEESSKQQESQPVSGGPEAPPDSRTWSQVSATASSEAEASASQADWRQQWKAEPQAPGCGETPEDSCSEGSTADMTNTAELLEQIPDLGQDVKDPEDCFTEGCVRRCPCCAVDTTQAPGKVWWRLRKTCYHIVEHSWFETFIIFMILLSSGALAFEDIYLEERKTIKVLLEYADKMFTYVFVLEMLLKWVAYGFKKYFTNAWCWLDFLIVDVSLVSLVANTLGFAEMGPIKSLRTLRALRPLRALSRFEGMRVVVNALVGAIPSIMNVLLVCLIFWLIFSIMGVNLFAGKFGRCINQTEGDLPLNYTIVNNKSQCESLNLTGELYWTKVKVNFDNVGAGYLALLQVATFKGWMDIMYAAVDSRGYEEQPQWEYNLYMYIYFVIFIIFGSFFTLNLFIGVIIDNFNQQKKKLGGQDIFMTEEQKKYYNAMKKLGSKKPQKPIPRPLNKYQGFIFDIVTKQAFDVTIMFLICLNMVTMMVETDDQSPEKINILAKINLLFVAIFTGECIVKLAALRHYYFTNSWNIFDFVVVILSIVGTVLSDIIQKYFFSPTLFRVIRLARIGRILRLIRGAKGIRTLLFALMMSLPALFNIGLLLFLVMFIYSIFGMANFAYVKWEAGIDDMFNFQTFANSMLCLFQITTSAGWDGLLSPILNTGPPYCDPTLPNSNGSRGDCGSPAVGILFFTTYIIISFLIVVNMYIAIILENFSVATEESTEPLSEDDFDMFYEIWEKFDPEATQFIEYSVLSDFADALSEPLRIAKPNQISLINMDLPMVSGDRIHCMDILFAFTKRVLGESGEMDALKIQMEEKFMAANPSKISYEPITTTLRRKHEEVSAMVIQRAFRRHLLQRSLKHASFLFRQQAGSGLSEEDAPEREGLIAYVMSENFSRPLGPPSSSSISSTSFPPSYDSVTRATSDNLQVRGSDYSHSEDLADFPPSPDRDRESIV

SMILES: COc1ccc(CCN2CCC(Nc3nc4ccccc4n3Cc3ccc(F)cc3)CC2)cc1 [Astemizole]
- IC50 (hKv4.3): 22 µM
- TdP risk [1]: 1
- EADs occurrence in rabbit experiments (rabbit Purkinje fibers): induced EADs

SMILES: CC(C)COCC(CN(Cc1ccccc1)c1ccccc1)N1CCCC1 (stereo not drawn) [Bepridil]
- IC50 (hNav1.5 [2]): 3.1 µM
- IC50 (hKv4.3): 13 µM
- TdP risk [1]: 1
- EADs in rabbit hearts (rabbit hearts; up to 10 µM, ref Anno et al., 1984, Hondeghem et al., 2003): did not induce EADs
- EADs occurrence in rabbit experiments (rabbit Purkinje fibers): no EADs were observed
- Risk classification based on EADs occurrence, in vitro rabbit (rabbit Purkinje fibers): misclassified

SMILES: COc1cc(N)c(Cl)cc1C(=O)NC1CCN(CCCOc2ccc(F)cc2)CC1OC (stereo not drawn) [Cisapride]
- IC50 (hCav1.2 [3]): 33 µM
- TdP risk [1]: 1
- EADs occurrence in rabbit experiments (rabbit Purkinje fibers): induced EADs

SMILES: CC[C@H]1OC(=O)[C@H](C)[C@@H](O[C@H]2C[C@@](C)(OC)[C@@H](O)[C@H](C)O2)[C@H](C)[C@@H](O[C@@H]2O[C@H](C)C[C@H](N(C)C)[C@H]2O)[C@](C)(OC)C[C@@H](C)C(=O)[C@H](C)[C@@H](O)[C@]1(C)O [Clarithromycin]
- IC50 (hNav1.5 [4]): 163 µM
- IC50 (hCav1.2 [5]): 103 µM
- IC50 (hERG): 62.5 µM
- TdP risk [1]: 1
- QT prolongation [6]: no QT prolongation at therapeutic doses
- ΔAPD90 Exp (rabbit Purkinje fibers; 30 μM): 51%

SMILES: COc1ccc([C@@H]2Sc3ccccc3N(CCN(C)C)C(=O)[C@@H]2OC(C)=O)cc1 [Diltiazem]
- IC50 (hKv4.3): 84 µM
- EADs occurrence in rabbit experiments (rabbit Purkinje fibers): did not induce any EADs; also recorded: did not induce any repolarization abnormalities
- Risk classification based on EADs occurrence, in vitro rabbit (rabbit Purkinje fibers): correctly classified as safe

SMILES: CC(C)N(CCC(C(N)=O)(c1ccccc1)c1ccccn1)C(C)C (stereo not drawn) [Disopyramide]
- IC50 (hCav1.2 [3]): 114 µM
- TdP risk [1]: 1

SMILES: CN(CCOc1ccc(NS(C)(=O)=O)cc1)CCc1ccc(NS(C)(=O)=O)cc1 [Dofetilide]
- TdP risk [1]: 1
- ΔAPD90 Exp (rabbit Purkinje fibers; 0.01 μM): 113%

SMILES: COC(=O)C1=C(C)NC(C)=C(C(=O)OC)C1c1ccccc1[N+](=O)[O-] [Nifedipine]
- IC50 (hKv4.3): 31 µM
- EADs occurrence in rabbit experiments (rabbit Purkinje fibers): did not induce any EADs
- Risk classification based on EADs occurrence, in vitro rabbit (rabbit Purkinje fibers): correctly classified as safe

SMILES: C=C[C@H]1C[N@@]2CC[C@H]1C[C@@H]2[C@@H](O)c1ccnc2ccc(OC)cc12 [Quinidine]
- TdP risk [1]: 1

SMILES: COc1ccccc1OCC(O)CN1CCN(CC(=O)Nc2c(C)cccc2C)CC1 (stereo not drawn) [Ranolazine]
- IC50 (hCav1.2 [3]): 156 µM
- TdP risk [1]: 2
- Effect in rabbit hearts (rabbit hearts; 10 µM, ref Frommeyer et al., 2012, Sossalla et al., 2014): anti-torsadogenic effects
- EADs in hiPSC-CMs (hiPSC-CMs): induced EADs
- EADs occurrence in rabbit experiments (rabbit Purkinje fibers): no EADs were observed
- Risk classification based on EADs occurrence, in vitro rabbit (rabbit Purkinje fibers): misclassified

SMILES: Cc1nc2n(c(=O)c1CCN1CCC(c3noc4cc(F)ccc34)CC1)CCCC2 [Risperidone]
- TdP risk [1]: 2

SMILES: CC(C)NCC(O)c1ccc(NS(C)(=O)=O)cc1 (stereo not drawn) [Sotalol]
- ΔAPD90 Exp (rabbit Purkinje fibers; 30 μM): 96%

SMILES: CC(C)(C)c1ccc(C(O)CCCN2CCC(C(O)(c3ccccc3)c3ccccc3)CC2)cc1 (stereo not drawn) [Terfenadine]
- IC50 (hKv4.3): 68 µM
- Risk classification based on mean APD90 prolongation >10%, in vitro rabbit (rabbit Purkinje fibers; 1 Hz): false negative
- AP prolongation in vitro rabbit experiments (rabbit Purkinje fibers; APD90 at 1 Hz, maximum over tested concentrations): up to 7%
- EADs occurrence in rabbit experiments (rabbit Purkinje fibers): no EADs were observed
- Risk classification based on EADs occurrence, in vitro rabbit (rabbit Purkinje fibers): misclassified
